# Earlier results, collected in patent publication US20110053172A1, “ONE STEP NANOSENSOR FOR SINGLE AND MULTIDRUG RESISTANCE IN ACUTE CORONARY SYNDROME (ACS)” (UNIVERSITY OF CALCUTTA, priority 2009, published 2011).
# Conditions: in comparison to aspirin; P=0.043
smiles,measurement,value
COC(=O)[C@H](c1ccccc1Cl)N1CCc2sccc2C1 [clopidogrel],"relative risk reduction in stroke, myocardial infarction, or ischaemic death",8.7%
